The source of these data is article PMC4576851 (Organic & biomolecular chemistry, 2015).

The target of the experiment is p97 (valosin containing protein, VCP, cdc48) (Homo sapiens, UniProt P55072). The experiment can be described thus: p97 ATPase inhibition assay. Type of experiment: biochemical.

Structures are written as SMILES.

Chain of p97 (valosin containing protein, VCP, cdc48) (P55072 2-806): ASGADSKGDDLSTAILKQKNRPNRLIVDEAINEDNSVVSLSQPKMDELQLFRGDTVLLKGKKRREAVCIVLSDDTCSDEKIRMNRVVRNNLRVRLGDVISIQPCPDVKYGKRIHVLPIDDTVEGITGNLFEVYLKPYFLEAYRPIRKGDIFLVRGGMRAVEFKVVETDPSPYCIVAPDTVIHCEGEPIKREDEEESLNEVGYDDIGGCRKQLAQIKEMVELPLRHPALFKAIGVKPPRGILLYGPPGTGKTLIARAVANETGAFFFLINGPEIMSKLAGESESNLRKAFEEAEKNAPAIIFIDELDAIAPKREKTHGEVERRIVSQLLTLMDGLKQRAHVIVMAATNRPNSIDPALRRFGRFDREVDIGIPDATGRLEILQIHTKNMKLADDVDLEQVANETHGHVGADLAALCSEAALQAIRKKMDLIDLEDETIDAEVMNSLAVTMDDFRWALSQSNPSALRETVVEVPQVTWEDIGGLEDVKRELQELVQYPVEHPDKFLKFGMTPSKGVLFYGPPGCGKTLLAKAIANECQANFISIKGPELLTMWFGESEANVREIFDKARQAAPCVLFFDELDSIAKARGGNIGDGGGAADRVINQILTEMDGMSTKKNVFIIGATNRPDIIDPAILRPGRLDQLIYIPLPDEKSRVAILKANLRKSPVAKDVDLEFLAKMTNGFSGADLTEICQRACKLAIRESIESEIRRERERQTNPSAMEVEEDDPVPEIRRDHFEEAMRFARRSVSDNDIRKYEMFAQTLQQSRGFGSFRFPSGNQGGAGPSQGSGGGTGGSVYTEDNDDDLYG

`C=C1OC(=O)C2(C1=O)[C@H](/C=C/C=C/CCC)C=C[C@@H](O)[C@@H]2O` (stereo partly shown) [compound 2, oxaspirol B] gave a half-maximal inhibitory concentration (IC50) of 31.2 ± 3 µM.
